Consider 1 molecule from publication PMC7819857, “Identification of Inhibitors of Integrin Cytoplasmic Domain Interactions With Syk” (Frontiers in Immunology, 2021).

Assay [1] has as its system MCP-1 gene expression in THP-1 cells. Briefly: Quantitative PCR of adhesion-dependent MCP-1 expression in THP-1 cells. Type of assay: cell-based, human. The settings on record: 100 µM loaded cells, plated on CS-1, 4 h, qPCR. The protocol: (§1) THP-1 cells (2 × 10^6 per treatment group) that were glycerol loaded with ceftazidime (100 µM) or vehicle control (as described above) were plated on CS-1 peptide (10 µg/ml; 6-well plates) in serum-free RPMI-1640. Control cells were also kept in suspension. Plated and suspension cells were incubated for 4 h at 37°C. After incubation, the medium was removed, and RNA was isolated from cells with a Qiagen RNA extraction kit. After cDNA synthesis, quantitative real-time PCR was used to determine the relative gene expression levels of IL-1β and monocyte chemoattractant protein (MCP)-1 in THP-1 cells adhered to CS-1 in the presence of vehicle or ceftazidime relative to that of cells in suspension. The cycle threshold (Ct) results generated were analyzed according to the comparative Ct method (2^-ΔΔCt), where ΔCt is the difference between the CT value of target versus GAPDH control, and ΔΔCt is the difference between the ΔCt values of a given treated adherent cell sample and that of cells in suspension. Statistical differences between the two treatment groups for each target were determined by a two-tailed, unpaired Student t test using GraphPad Prism 7.04 statistical software.
(§2) Figure 6 Selective inhibition of integrin signaling by ceftazidime. […] Data are expressed as mean ± range from duplicate determinations. […] Kinase activity is expressed as percent of maximum signal. […]
Background: Quantitative PCR measures a nucleic acid by following its amplification.

The subject of assay [2] is IL-1β gene expression in THP-1 cells. Put plainly: Quantitative PCR of adhesion-dependent IL-1β expression in THP-1 cells. Type of assay: cell-based, human. The settings on record: 100 µM loaded cells, plated on CS-1, 4 h, qPCR. The method, then:
as §1, §2

For `CC(C)(O/N=C(\C(=O)N[C@@H]1C(=O)N2C(C(=O)[O-])=C(C[n+]3ccccc3)CS[C@H]12)c1csc(N)n1)C(=O)O` [ceftazidime], the “adhesion-dependent induction of the expression of MCP-1” value in assay [1] is recorded as “significantly inhibited”. Moreover, the “adhesion-dependent induction of the expression of IL-1β” value in assay [2] is “significantly inhibited”.
